Results published in patent US7935806B2, “Method for performing in vitro diagnosis using gene regulation mechanisms and corresponding diagnosis kit” (Unisensor S.A., priority 2001, dated 2011).

Tests used:
[1] = molecular target: T1, avidin (Gallus gallus, UniProt P02701); settings: non-covalent; cited from earlier work
T1 construct: The avidin is a tetrameric glycoprotein isolated from egg-white; from tissue; host or cells: egg-white

[2] = molecular target: T2, tetR of class C (Escherichia coli, UniProt P03039); format: binding, E. Coli C600; settings: 25 ppb in honey, read with the naked eye
T2 construct: two primers have been selected for amplification by PCR of the gene which has then been cloned in a pet12a-expression plasmid; made in house; host or cells: E. coli HB101 carrying pT7po123; expression plasmid pet12a
Protocol: In the example showing the measurement of the concentration based on samples of honey, one unpurified part of serum obtained above is placed in the presence of one part of tetR receptor obtained above in 1.1.1, 15 parts of A-protein marked by means of particles of colloidal gold of 40 nm and one DO at 500 nm of 10 (available from Unisensor S.A., Liege, Belgium) and 20 parts of lyophilisation buffer (Tris 10 mM, pH 8, BSA 5 mg/ml, sucrose 10 g/l). This mixture is lyophilised for 20 hours.
To 1 gram of honey are added 3 ml of dilution buffer (for 1 litre, 2.73 g of Na2HPO4.2H2O, 1.65 g of citric acid, 7 g of BSA and 2.5 g of Tween-20, pH 5) and the solutin is stirred vigorously so as to obtain a homogeneous solution. 200 μl of this dilution of the sample of honey are then incubated in the presence of the lyophilisate prepared above (see Point 1.1.2.2). After 10 minutes of incubation at ambient temperature (±20° C.), the analysis strip described above at 1.3 is immersed in the solution. The final interpretation is made with the naked eye, after 15 minutes of incubation at ambient temperature.

[3] = molecular target: MetJ (Escherichia coli, UniProt P0A8U6); settings: in the presence of the co-repressor; cited from earlier work
MetJ, sequence (P0A8U6 2-105): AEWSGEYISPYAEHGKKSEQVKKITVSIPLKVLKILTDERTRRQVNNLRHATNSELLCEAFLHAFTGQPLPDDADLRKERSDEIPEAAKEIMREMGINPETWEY

T1 sequence (P02701 25-152): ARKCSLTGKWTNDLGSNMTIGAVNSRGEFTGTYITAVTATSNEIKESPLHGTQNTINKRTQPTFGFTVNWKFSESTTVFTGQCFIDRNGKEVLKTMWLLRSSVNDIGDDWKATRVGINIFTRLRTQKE
T2 sequence (P03039 whole entry): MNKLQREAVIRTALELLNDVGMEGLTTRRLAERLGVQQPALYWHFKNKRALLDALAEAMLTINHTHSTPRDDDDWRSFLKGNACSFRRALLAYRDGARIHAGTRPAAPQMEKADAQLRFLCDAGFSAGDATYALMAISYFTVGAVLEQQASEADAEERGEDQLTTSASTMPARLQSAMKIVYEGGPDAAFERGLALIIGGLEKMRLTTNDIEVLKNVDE

SMILES: O=C(O)CCCC[C@@H]1SC[C@@H]2NC(=O)N[C@@H]21 [biotin]
- affinity of avidin sub-unit for biotin (Ka) [1]: 10^15 M^−1

SMILES: CN(C)[C@@H]1C(O)=C(C(N)=O)C(=O)[C@@]2(O)C(O)=C3C(=O)c4c(O)ccc(Cl)c4[C@@H](O)[C@H]3C[C@@H]12 [demedocycline]
- test result (test signal lower than control signal = positive) [2]: positive result

SMILES: C[S+](CC[C@H](N)C(=O)[O-])C[C@H]1O[C@@H](n2cnc3c(N)ncnc32)[C@H](O)[C@@H]1O (stereo partly drawn) [s-adenosylmethionine]
- increase of MetJ affinity for DNA [3]: more than 1,000 times
